# Data from patent publication US12122761B2, “2-azaspiro[3.4]octane derivatives as M4 agonists” (NOVARTIS AG, priority 2019, dated 2024).
# Where two headings read alike, the source gives them in different places.
# Columns and labels:
# [1] = biological target: T1, human cloned CHRM4 receptor (M4_CHO cells) (Homo sapiens, UniProt P08173); experiment: CHRM4 Ca++ Flux Assay (agonist mode, FDSS 7000EX); format: cell-based; conditions: for M4 FDSS PA / Emax: Percent Activity; for EC50: geometric mean if tested more than once, read-out: M4 FDSS EC50; for Emax: read-out: M4 FDSS PA
# T1 construct: expressed in transfected cells; host or cells: CHO-K1
# T1 sequence (P08173 1-479): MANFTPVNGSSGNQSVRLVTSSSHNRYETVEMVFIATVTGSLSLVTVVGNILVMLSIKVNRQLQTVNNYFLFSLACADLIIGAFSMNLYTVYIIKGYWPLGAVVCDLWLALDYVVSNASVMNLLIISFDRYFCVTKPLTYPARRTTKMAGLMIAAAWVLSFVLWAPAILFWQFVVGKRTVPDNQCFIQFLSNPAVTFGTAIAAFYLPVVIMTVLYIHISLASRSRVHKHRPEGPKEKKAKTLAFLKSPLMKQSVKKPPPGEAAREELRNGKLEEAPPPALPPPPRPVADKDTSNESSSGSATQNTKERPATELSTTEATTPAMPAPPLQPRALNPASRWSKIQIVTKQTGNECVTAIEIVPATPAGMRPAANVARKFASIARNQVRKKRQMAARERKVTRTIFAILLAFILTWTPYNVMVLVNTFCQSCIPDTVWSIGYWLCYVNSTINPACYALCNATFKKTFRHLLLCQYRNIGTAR
# Outline: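 Agonist-mode response was expressed as percent of the Carbachol EC100 and fitted with four-parameter nonlinear regression over an 11-point triplicate dose series. Intracellular Ca++ was tracked for 3 min by fluorescent dye in CHO-K1 cells stably expressing human CHRM4. Cells were preincubated 60 min with 20 μM ATP in buffer containing 2.5 mM probenecid.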
# [2] = biological target: T2, human cloned CHRM2 receptor (M2_CHO cells) (Homo sapiens, UniProt P08172); experiment: CHRM2 Ca++ Flux Assay (agonist mode, FDSS 7000EX); format: cell-based; conditions: for M2 FDSS PA / Emax: Percent Activity measured to EC100 of Carbachol; for Emax: read-out: M2 FDSS PA; for EC50: agonist mode, geometric mean if tested more than once, read-out: M2 FDSS EC50
# T2 construct: expressed in transfected cells; host or cells: CHO-K1
# T2 sequence (P08172 1-466): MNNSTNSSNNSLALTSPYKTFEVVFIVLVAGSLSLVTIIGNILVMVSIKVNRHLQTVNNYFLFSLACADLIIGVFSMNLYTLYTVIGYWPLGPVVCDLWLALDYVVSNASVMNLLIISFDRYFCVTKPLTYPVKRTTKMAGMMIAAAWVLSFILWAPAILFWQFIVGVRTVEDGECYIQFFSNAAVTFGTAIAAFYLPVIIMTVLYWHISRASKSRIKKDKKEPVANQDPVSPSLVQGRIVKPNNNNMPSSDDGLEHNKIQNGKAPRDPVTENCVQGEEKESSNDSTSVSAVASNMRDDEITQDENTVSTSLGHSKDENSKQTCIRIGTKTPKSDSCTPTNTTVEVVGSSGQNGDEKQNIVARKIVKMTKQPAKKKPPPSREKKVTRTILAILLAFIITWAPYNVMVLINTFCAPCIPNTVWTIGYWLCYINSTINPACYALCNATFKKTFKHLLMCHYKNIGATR
# Outline: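 Response expressed as percent activity versus the Carbachol EC100, with curves fitted by four-parameter non-linear regression of triplicates. Stable M2_CHO cells were Ca++ dye-loaded and preincubated 60 min at room temperature in assay buffer containing 20 μM ATP; signal imaged for 3 minutes after compound.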
M4 FDSS PA [1],EC50 [1],M2 FDSS PA [2],Emax [1],Emax [2],EC50 [2],SMILES,M4 FDSS PA ([1]; citrate salt),EC50 ([1]; citrate salt),M2 FDSS PA ([2]; citrate salt)
–,–,–,–,–,–,"O=C(C1COC1)N1CC2(CC[C@H](N3CCC(c4ccccc4OC(F)F)CC3)C2)C1.O=C(O)CC(O)(CC(=O)O)C(=O)O (single isomer, unassigned) [Example 8F, (S)-(6-(4-(2-(difluoromethoxy)phenyl)piperidin-1-yl)-2-azaspiro[3.4]octan-2-yl)(oxetan-3-yl)methanone or (R)-(6-(4-(2-(difluoromethoxy)phenyl)piperidin-1-yl)-2-azaspiro[3.4]octan-2-yl)(oxetan-3-yl)methanone citrate salt]",10%,1110 nM,0%
48%,3 nM,0%,–,–,–,"O=C(N1CC2(CC[C@@H](N3CCC(c4ccccc4OCC4CCOCC4)CC3)C2)C1)C1(F)CC1 (single isomer, unassigned) [Example 7Q, (R)-(1-fluorocyclopropyl)(6-(4-(2-((tetrahydro-2H-pyran-4-yl)methoxy)phenyl)piperidin-1-yl)-2-azaspiro[3.4]octan-2-yl)methanone or (S)-(1-fluorocyclopropyl)(6-(4-(2-((tetrahydro-2H-pyran-4-yl)methoxy)phenyl)piperidin-1-yl)-2-azaspiro[3.4]octan-2-yl)methanone]",–,–,–
–,129 nM,–,55%,0%,–,"COc1ccccc1C1CCN([C@@H]2CCC3(C2)CN(c2ccnnc2)C3)CC1 [Example 5S, (R)-6-(4-(2-methoxyphenyl)piperidin-1-yl)-2-(pyridazin-4-yl)-2-azaspiro[3.4]octane]",–,–,–
43%,75 nM,0%,–,–,< 26000 nM,"O=C(N1CC2(CC[C@@H](N3CCC(c4cc(F)ccc4OC4CCOCC4)CC3)C2)C1)C1(F)CC1 (single isomer, unassigned) [Example 9D, (R)-(6-(4-(5-fluoro-2-((tetrahydro-2H-pyran-4-yl)oxy)phenyl)piperidin-1-yl)-2-azaspiro[3.4]octan-2-yl)(1-fluorocyclopropyl)methanone or (S)-(6-(4-(5-fluoro-2-((tetrahydro-2H-pyran-4-yl)oxy)phenyl)piperidin-1-yl)-2-azaspiro[3.4]octan-2-yl)(1-fluorocyclopropyl)methanone]",–,–,–
67%,1 nM,42%,–,–,–,"COc1ccccc1C1CCN([C@H]2CCC3(C2)CN(c2ncco2)C3)CC1 (single isomer, unassigned) [Example 10J, (S)-2-(6-(4-(2-methoxyphenyl)piperidin-1-yl)-2-azaspiro[3.4]octan-2-yl)oxazole or (R)-2-(6-(4-(2-methoxyphenyl)piperidin-1-yl)-2-azaspiro[3.4]octan-2-yl)oxazole]",–,–,–
67%,1 nM,17%,–,–,–,"FC(F)Oc1ccccc1C1CCN([C@@H]2CCC3(C2)CN(c2nncs2)C3)CC1 (single isomer, unassigned) [Example 10O, (R)-2-(6-(4-(2-(difluoromethoxy)phenyl)piperidin-1-yl)-2-azaspiro[3.4]octan-2-yl)-1,3,4-thiadiazole or (S)-2-(6-(4-(2-(difluoromethoxy)phenyl)piperidin-1-yl)-2-azaspiro[3.4]octan-2-yl)-1,3,4-thiadiazole]",–,–,–
65%,7 nM,0%,–,–,–,"FC(F)(F)Oc1ccccc1C1CCN([C@@H]2CCC3(C2)CN(c2ncco2)C3)CC1 (single isomer, unassigned) [Example 10K, (R)-2-(6-(4-(2-(trifluoromethoxy)phenyl)piperidin-1-yl)-2-azaspiro[3.4]octan-2-yl)oxazole or (S)-2-(6-(4-(2-(trifluoromethoxy)phenyl)piperidin-1-yl)-2-azaspiro[3.4]octan-2-yl)oxazole]",–,–,–
56%,1 nM,0%,–,–,–,"O=C(N1CC2(CC[C@@H](N3CCC(c4cc(F)ccc4C4CCOCC4)CC3)C2)C1)C1(F)CC1 (single isomer, unassigned) [Example 9K, (R)-(6-(4-(5-fluoro-2-(tetrahydro-2H-pyran-4-yl)phenyl)piperidin-1-yl)-2-azaspiro[3.4]octan-2-yl)(1-fluorocyclopropyl)methanone or (S)-(6-(4-(5-fluoro-2-(tetrahydro-2H-pyran-4-yl)phenyl)piperidin-1-yl)-2-azaspiro[3.4]octan-2-yl)(1-fluorocyclopropyl)methanone]",–,–,–
5%,12100 nM,19%,–,–,18600 nM,"O=C(N1CC2(CC[C@@H](N3CCC(c4ccccc4OCC4CC4)CC3)C2)C1)C1(F)CC1 (single isomer, unassigned) [Example 7T, (R)-(6-(4-(2-(cyclopropylmethoxy)phenyl)piperidin-1-yl)-2-azaspiro[3.4]octan-2-yl)(1-fluorocyclopropyl)methanone or (R)-(6-(4-(2-(cyclopropylmethoxy)phenyl)piperidin-1-yl)-2-azaspiro[3.4]octan-2-yl)(1-fluorocyclopropyl)methanone]",–,–,–
36%,342 nM,31%,–,–,11800 nM,"O=C(N1CC2(CC[C@@H](N3CCC(c4ccccc4OC(F)(F)F)CC3)C2)C1)C1(F)CC1 (single isomer, unassigned) [Example 9A, (R)-(1-fluorocyclopropyl)(6-(4-(2-(trifluoromethoxy)phenyl)piperidin-1-yl)-2-azaspiro[3.4]octan-2-yl)methanone or (S)-(1-fluorocyclopropyl)(6-(4-(2-(trifluoromethoxy)phenyl)piperidin-1-yl)-2-azaspiro[3.4]octan-2-yl)methanone]",–,–,–
60%,5 nM,42%,–,–,–,"Fc1cncc(N2CC3(CC[C@@H](N4CCC(c5cc(F)ccc5OC5CCOCC5)CC4)C3)C2)c1 (single isomer, unassigned) [Example 10A, (R)-6-(4-(5-fluoro-2-((tetrahydro-2H-pyran-4-yl)oxy)phenyl)piperidin-1-yl)-2-(5-fluoropyridin-3-yl)-2-azaspiro[3.4]octane or (S)-6-(4-(5-fluoro-2-((tetrahydro-2H-pyran-4-yl)oxy)phenyl)piperidin-1-yl)-2-(5-fluoropyridin-3-yl)-2-azaspiro[3.4]octane]",–,–,–
56%,5 nM,0%,–,–,–,"Fc1ccc(OC2CCOCC2)c(C2CCN([C@@H]3CCC4(C3)CN(c3cncnc3)C4)CC2)c1 (single isomer, unassigned) [Example 10G, (R)-6-(4-(5-fluoro-2-((tetrahydro-2H-pyran-4-yl)oxy)phenyl)piperidin-1-yl)-2-(pyrimidin-5-yl)-2-azaspiro[3.4]octane or (S)-6-(4-(5-fluoro-2-((tetrahydro-2H-pyran-4-yl)oxy)phenyl)piperidin-1-yl)-2-(pyrimidin-5-yl)-2-azaspiro[3.4]octane]",–,–,–
50%,25 nM,11%,–,–,506 nM,"Fc1ccc(C2CCOCC2)c(C2CCN([C@@H]3CCC4(C3)CN(c3cncnc3)C4)CC2)c1 (single isomer, unassigned) [Example 10D, (R)-6-(4-(5-fluoro-2-(tetrahydro-2H-pyran-4-yl)phenyl)piperidin-1-yl)-2-(pyrimidin-5-yl)-2-azaspiro[3.4]octane or (S)-6-(4-(5-fluoro-2-(tetrahydro-2H-pyran-4-yl)phenyl)piperidin-1-yl)-2-(pyrimidin-5-yl)-2-azaspiro[3.4]octane]",–,–,–
–,84 nM,–,16%,49%,13200 nM,"COc1ccccc1C1CCN([C@@H]2CCC3(C2)CN(c2nccnc2C(F)(F)F)C3)CC1 [Example 5I, (R)-6-(4-(2-methoxyphenyl)piperidin-1-yl)-2-(3-(trifluoromethyl)pyrazin-2-yl)-2-azaspiro[3.4]octane]",–,–,–
